The subject of one assay is Panc3.27 tumor cells. Put plainly: Cellular assay: Panc3.27 tumor cell proliferation (Cell Titer Glo). Particulars: Panc3.27 cells, 72 hour treatment, read-out: PANC proliferation IC50. It counts as cell-based. As for the experimental part:
Cellular Assay—Treatment of Panc3.27 Tumor Cells with Dimeric IAP Antagonists
On day one adherent Panc3.27 cells are plated into two 96-well, clear, flat bottom plates. All wells in row A contain 90 uL of media. All wells in rows B-G contain a total volume of 90 uL per well and 4000 cells per well for Panc3.27 cell lines. Plates are then incubated overnight for 18 hours at 37° C., 5% CO2.
On day two cells are treated with the compounds of formula M-L-M′. Treatments are done in triplicate. The compounds are first serially diluted in DMSO and then added to media giving a final concentration of 0.2% DMSO when added to cells. Cells are treated with 10 uL of serially diluted compounds of formula M-L-M′ at a final concentration of 1000 nM, 200 nM, 40 nM, 8 nM, 1.6 nM, 0.32 nM, 0.06 nM, 0.013 nM, 0.0026 nM, and one untreated well. Plate two is used as a time zero plate.
To measure cell viability 50 uL of Cell Titer Glo (CTG) solution is added to row A, media only and B, cells and media. CTG is purchased from Promega Corporation catalog number G7573. The solution is prepared according to manufacturer's instructions. CTG measures the amount of ATP released from viable cells that is proportional to the number of cells in each well. After incubating for ten minutes with CTG plates are measured on a luminescent reader at 700 nm wavelength. Read time is approximately one second per well for a 96-well plate.
On day five 50 uL of CTG is added to plate one, rows A-G, incubated for 10 minutes at room temperature and read on a luminescent reader. Raw data is adjusted to account for the time zero plate as well as background noise. Triplicate values are averaged and percent control growth is calculated. Percent control growth is calculated using the following logical test: If well read data point (a) is greater than time zero data point (t=0), then 100*[(a)−(t=0)]/[(72 hour total growth)−(t=0)], OR 100*[(a)−(t=0)]/[(t=0)]. Data is represented by line graph with the concentration of compound on the x axis and percent control growth on the y axis.

Another assay addresses T1, cIAP1-BIR3 (Homo sapiens, UniProt Q13490).
T1 construct: with either 100 nM XIAP-BIR3 or 6 nM cIAP1-BIR3
The assay can be described thus: Biacore SPR solution inhibition (competition with smac7mer peptide) binding assay, cIAP1-BIR3. Particulars: 6 nM cIAP1-BIR3, competition with immobilised smac7mer peptide, 25° C.; read-out: CIAP-BIR3 Binding Biacore (Competitive) EC50. The text has this:
(§1) The present method includes utility of a Surface plasmon resonance (SPR)-based biosensor (Biacore™ GE Healthcare, Uppsala, Sweden) to examine competition between the compounds of the present invention and smac7mer peptide for XIAP-BIR3 and cIAP1-BIR3 binding groove occupancy.
(§2) Biacore™ utilizes the phenomenon of surface plasmon resonance (SPR) to detect and measure binding interactions. In a typical Biacore experiment, one of the interacting molecules is immobilized on a flexible dextran matrix while the interacting partner is flowed over the derivatized surface. A binding interaction results in an increase in mass on the sensor surface and a corresponding direct change in the refractive index of the medium in the vicinity of the sensor surface. Changes in refractive index or signal are recorded in resonance units (R.U.) Signal changes due to association and dissociation of complexes are monitored in a non-invasive manner, continuously and in real-time, the results of which are reported in the form of a sensorgram.
(§3) Solution Inhibition Assay Format:
(§4) Biacore™ T100 (GE Healthcare, Uppsala, Sweden) was used to conduct all experiments reported herein. Sensor surface preparation and interaction analyses were performed at 25° C. Buffer and Biacore reagents were purchased from GE Healthcare. Running buffer containing 10 mM Hepes, pH7.4, 150 mM sodium chloride, 1.25 mM Dithiothreitol, 2% Dimethyl sulfoxide and 0.05% polysorbate 20 was utilized throughout all experiments.
(§5) Biotinylated smac7mer peptide was diluted to 10 nM in running buffer and captured onto a sensor surface pre-derivatized with streptavidin (sensor chip SA) towards peptide surface densities in the range 40-100 R.U. Peptide captured surfaces were blocked with 500 μM PEO2-Biotin (Thermo Scientific).
(§6) Interaction analyses were performed by first equilibrating each compound within a six point seven fold compound dilution series in the range 1 μM to 0.06 nM with either 100 nM XIAP-BIR3 or 6 nM cIAP1-BIR3 for at least one hour during instrument start-up procedures. Protein compound mixtures were then injected over reference and smac7mer peptide surfaces in series for 60 seconds at a flow-rate of 60 μL/min. Surface regeneration was performed at the end of each analysis cycle by a 30 second injection of 10 mM Glycine, pH 2.5, 1M Sodium Chloride, 0.05% polysorbate 20. Additionally, control compound samples and control XIAP-BIR3 or cIAP1-BIR3 samples were prepared and run at regular intervals to monitor surface and assay performance.
(§7) Data analyses were carried out using Biacore™ T100 evaluation software v2.0 to validate assay quality. Binding level report points were plotted versus logarithmic compound concentration values and analyzed in Graphpad prism 5 via non-linear regression using a one-site competition model. EC50 values were generated and used as a measure of inhibitor potency.
A general note: Surface plasmon resonance follows binding to a sensor surface in real time, without labels.

A further assay addresses T2, XIAP-BIR3 (Homo sapiens, UniProt P98170).
T2 construct: with either 100 nM XIAP-BIR3 or 6 nM cIAP1-BIR3
The assay can be described thus: Biacore SPR solution inhibition (competition with smac7mer peptide) binding assay, XIAP-BIR3. As to conditions: 100 nM XIAP-BIR3, competition with immobilised smac7mer peptide, 25° C.; read-out: XIAP-BIR3 Binding Biacore (Competitive) EC50.
Description: as §1, §2, §3, §4, §5, §6, §7

Each structure is given as a SMILES string. Bounds are passed on as bounds.

T1 sequence (Q13490 260-352 limits assumed): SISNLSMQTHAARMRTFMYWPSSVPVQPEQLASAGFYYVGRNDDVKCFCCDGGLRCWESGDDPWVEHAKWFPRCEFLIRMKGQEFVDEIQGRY
T2 sequence (P98170 241-356 limits assumed): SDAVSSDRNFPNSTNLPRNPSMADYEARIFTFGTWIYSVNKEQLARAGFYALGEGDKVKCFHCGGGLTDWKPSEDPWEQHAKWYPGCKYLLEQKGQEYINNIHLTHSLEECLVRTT

As a reminder, the EC50 is the concentration giving half of the maximal effect. As to `CN[C@@H](C)C(=O)N[C@H](C(=O)N1CCC[C@H]1c1cncc(-n2ccc3c(C(=O)NCc4ccc(CNC(=O)c5cccc6c5ccn6-c5cncc([C@@H]6CCCN6C(=O)[C@@H](NC(=O)[C@H](C)NC)C(C)C)c5)cc4)cccc32)c1)C(C)C` [Example 1B, (S,S,S)—N,N′-(1,4-phenylenebis(methylene))bis(1-(5-((S)-1-((S)-3-methyl-2-((S)-2-(methylamino)propanamido)butanoyl)pyrrolidin-2-yl)pyridin-3-yl)-1H-indole-4-carboxamide)], the IC50 in the assay on Panc3.27 tumor cells is less than 0.0026 nM. For the same compound, the EC50 at cIAP1-BIR3 lay within 1.22 to 1.23 nM; on XIAP-BIR3, 56.8 to 57 nM.
Taken in the same sequence, the figures for `CN[C@@H](C)C(=O)N[C@H](C(=O)N1CCC[C@H]1c1cncc(-n2ccc3c(C(=O)NCCCNC(=O)c4cccc5c4ccn5-c4cncc([C@@H]5CCCN5C(=O)[C@@H](NC(=O)[C@H](C)NC)C(C)C)c4)cccc32)c1)C(C)C` [Example 1C, (S,S,S)—N,N′-(propane-1,3-diyl)bis(1-(5-((S)-1-((S)-3-methyl-2-((S)-2-(methylamino)propanamido)butanol)pyrrolidin-2-yl)pyridin-3-yl)-1H-indole-4-carboxamide)] were 0.0026 to 0.14 nM, 1.66 to 1.71 nM and 70.7 to 71.3 nM.
Taken in the same sequence, the figures for `CN[C@@H](C)C(=O)N[C@H](C(=O)N1CCC[C@H]1c1cncc(-n2ccc3c(C(=O)N[C@H]4CCCC[C@@H]4NC(=O)c4cccc5c4ccn5-c4cncc([C@@H]5CCCN5C(=O)[C@@H](NC(=O)[C@H](C)NC)C(C)C)c4)cccc32)c1)C(C)C` [Example 1D, (S,S,S)—N,N′-((1S,2S)-cyclohexane-1,2-diyl)bis(1-(5-((S)-1-((S)-3-methyl-2-((S)-2-(methylamino)propanamido)butanoyl)pyrrolidin-2-yl)pyridin-3-yl)-1H-indole-4-carboxamide)] were 2.61 to 2.75 nM, 1.2 to 1.22 nM and 76 to 76.7 nM.
Taken in the same sequence, the figures for `CN[C@@H](C)C(=O)N[C@H](C(=O)N1CCC[C@H]1c1cncc(-n2cc(C(=O)NCCCOCCOCCOCCOCCOCCCNC(=O)c3cn(-c4cncc([C@@H]5CCCN5C(=O)[C@@H](NC(=O)[C@H](C)NC)C(C)C)c4)c4ccccc34)c3ccccc32)c1)C(C)C` [Example 2B, (S,S,S)—N,N′-(4,7,10,13,16-pentaoxanonadecane-1,19-diyl)bis(1-(5-((S)-1-((S)-3-methyl-2-((S)-2-(methylamino)propanamido)butanoyl)pyrrolidin-2-yl)pyridin-3-yl)-1H-indole-3-carboxamide)] were 0.02 to 0.21 nM, 0.51 to 1.04 nM and 51.2 to 59.4 nM.
For the compound `CN[C@@H](C)C(=O)N[C@H](C(=O)N1CCC[C@H]1c1cncc(-n2cc(C(=O)NCCCOCCOCCOCCCNC(=O)c3cn(-c4cncc([C@@H]5CCCN5C(=O)[C@@H](NC(=O)[C@H](C)NC)C(C)C)c4)c4ccccc34)c3ccccc32)c1)C(C)C` [Example 2C, (S,S,S)—N,N′-(3,3′-(2,2′-oxybis(ethane-2,1-diyl)bis(oxy))bis(propane-3,1-diyl))bis(1-(5-((S)-1-((S)-3-methyl-2-((S)-2-(methylamino)propanamido)-butanoyl)pyrrolidin-2-yl)pyridin-3-yl)-1H-indole-3-carboxamide)], the IC50 with Panc3.27 tumor cells was in the range of 0.1 to 0.27 nM. The EC50 fell in the range of 0.97 to 0.98 nM on cIAP1-BIR3 and 42 to 79.9 nM on XIAP-BIR3.
Taken in the same sequence, the figures for `CN[C@@H](C)C(=O)N[C@H](C(=O)N1CCC[C@H]1c1cncc(-n2cc(C(=O)NCCCOCCOCCCNC(=O)c3cn(-c4cncc([C@@H]5CCCN5C(=O)[C@@H](NC(=O)[C@H](C)NC)C(C)C)c4)c4ccccc34)c3ccccc32)c1)C(C)C` [Example 2E, (S,S,S)—N,N′-(3,3′-(ethane-1,2-diylbis(oxy))bis(propane-3,1-diyl))bis(1-(5-((S)-1-((S)-3-methyl-2-((S)-2-(methylamino)propanamido)butanoyl)pyrrolidin-2-yl)pyridin-3-yl)-1H-indole-3-carboxamide)] were 0.26 to 0.44 nM, 0.52 to 1.83 nM and 47 to 54 nM.
Take `CN[C@@H](C)C(=O)N[C@H](C(=O)N1CCC[C@H]1c1cncc(-n2cc(C(=O)NCCNC(=O)c3cn(-c4cncc([C@@H]5CCCN5C(=O)[C@@H](NC(=O)[C@H](C)NC)C(C)C)c4)c4ccccc34)c3ccccc32)c1)C(C)C` [Example 2F, (S,S,S)—N,N′-(ethane-1,2-diyl)bis(1-(5-((S)-1-((S)-3-methyl-2-((S)-2-(methylamino)propanamido)butanoyl)pyrrolidin-2-yl)pyridin-3-yl)-1H-indole-3-carboxamide)]: the IC50 with Panc3.27 tumor cells was 0.08 to 0.28 nM. Besides, the values for the EC50 at cIAP1-BIR3 and on XIAP-BIR3 were 0.21 to 0.86 nM and 23.5 to 55.2 nM, respectively.
In the case of `CN[C@@H](C)C(=O)N[C@H](C(=O)N1CCC[C@H]1c1cncc(-n2cc(C(=O)NCc3ccc(-c4ccc(CNC(=O)c5cn(-c6cncc([C@@H]7CCCN7C(=O)[C@@H](NC(=O)[C@H](C)NC)C(C)C)c6)c6ccccc56)cc4)cc3)c3ccccc32)c1)C(C)C` [Example 2G, (S,S,S)—N,N′-(biphenyl-4,4′-diylbis(methylene))bis(1-(5-((S)-1-((S)-3-methyl-2-((S)-2-(methylamino)propanamido)butanoyl)pyrrolidin-2-yl)pyridin-3-yl)-1H-indole-3-carboxamide)], the IC50 with Panc3.27 tumor cells is less than 0.0026 nM. Moreover, the EC50 at cIAP1-BIR3 lay in the range of 2.24 to 2.27 nM; at XIAP-BIR3, 47.9 to 51.6 nM.
Taken in the same sequence, the figures for `CN[C@@H](C)C(=O)N[C@H](C(=O)N1CCC[C@H]1c1cncc(-n2cc(C(=O)NCCCCCCCCCCCNC(=O)c3cn(-c4cncc([C@@H]5CCCN5C(=O)[C@@H](NC(=O)[C@H](C)NC)C(C)C)c4)c4ccccc34)c3ccccc32)c1)C(C)C` [Example 2H, (S,S,S)—N,N′-(undecane-1,11-diyl)bis(1-(5-((S)-1-((S)-3-methyl-2-((S)-2-(methylamino)propanamido)butanoyl)pyrrolidin-2-yl)pyridin-3-yl)-1H-indole-3-carboxamide)] were less than 0.0026 nM, 1 to 1.02 nM and 60.3 to 60.8 nM.
Taken in the same sequence, the figures for `CN[C@@H](C)C(=O)N[C@H](C(=O)N1CCC[C@H]1c1cncc(-n2cc(C(=O)NCCCOCCCNC(=O)c3cn(-c4cncc([C@@H]5CCCN5C(=O)[C@@H](NC(=O)[C@H](C)NC)C(C)C)c4)c4ccccc34)c3ccccc32)c1)C(C)C` [Example 2I] were 0.18 to 1.21 nM, 0.5 to 0.51 nM and 19.7 to 20.8 nM.

For the origin of these results see patent US8993523B2, “Dimeric IAP inhibitors” (Novartis AG, priority 2010, dated 2015).
